According to the NIST ThermoML archive (doi:10.1021/acs.jced.9b00134):
Numbers after ± are expanded uncertainties.

Tests used:
[1] = 293.15 K, 101.13 kPa, Vibrating tube method
[2] = refractive index (Na D-line) (dimensionless); xn = mol fraction of the nth substance listed; details: 101.13 kPa, Liquid, Standard Abbe refractometry, x1 = 0.5
[3] = xn = mol fraction of the nth substance listed; details: 101.13 kPa, Liquid, x1 = 0.5; for mass density: Vibrating tube method; for electrical conductivity: Alternating current cell with electrodes; for viscosity: Concentric cylinders viscometry

CCC(O)CO (stereo not given) [1,2-butanediol]
Details	mass density [kg/m3]
[1], Liquid	1000 ± 20

OCCO [1,2-ethanediol]
Details	mass density [kg/m3]
[1], Liquid	1105 ± 20

OCCCCCCO [1,6-hexanediol]
Details	mass density [kg/m3]
[1], Liquid	947 ± 20

OCC(O)CO [glycerol]
Details	mass density [kg/m3]
[1], Liquid	1238 ± 20

O=C([O-])[O-].[Na+].[Na+] [sodium carbonate]
Details	mass density [kg/m3]
[1], Crystal	2516 ± 23

C[N+](C)(C)Cc1ccccc1.[Cl-] [trimethylbenzylammonium chloride]
Details	mass density [kg/m3]
[1], Crystal	1061 ± 20

C[N+](C)(C)Cc1ccccc1.[Cl-] [trimethylbenzylammonium chloride] + CCC(O)CO
Details	electrical conductivity, [3] [S/m]	mass density, [3] [kg/m3]	refractive index, [2]	viscosity, [3] [mPa·s]
293 K	–	1104 ± 20	1.4982 ± 0.0006	–
298 K	0.194 ± 0.039	1093 ± 20	1.4956 ± 0.0007	231.7 ± 27
303 K	0.312 ± 0.063	1083 ± 20	1.4921 ± 0.0007	128.5 ± 22
308 K	0.382 ± 0.076	1073 ± 20	1.4892 ± 0.0007	64.2 ± 12
313 K	0.437 ± 0.087	1064 ± 20	1.4851 ± 0.0007	34.5 ± 5.5
318 K	0.465 ± 0.093	1057 ± 20	1.4823 ± 0.0007	22.1 ± 2.2
323 K	0.532 ± 0.11	1049 ± 20	1.4781 ± 0.0008	17.9 ± 1.2

C[N+](C)(C)Cc1ccccc1.[Cl-] [trimethylbenzylammonium chloride] + OCC(O)CO
Details	electrical conductivity, [3] [S/m]	mass density, [3] [kg/m3]	refractive index, [2]	viscosity, [3] [mPa·s]
293 K	–	1170.3 ± 20	1.5653 ± 0.0008	–
298 K	0.0688 ± 0.014	1167.2 ± 20	1.5612 ± 0.0007	383.9 ± 59
303 K	0.115 ± 0.023	1164.3 ± 20	1.5587 ± 0.0007	159.6 ± 40
308 K	0.123 ± 0.025	1161.4 ± 20	1.556 ± 0.0007	79.8 ± 14
313 K	0.126 ± 0.025	1158.4 ± 20	1.5532 ± 0.0007	48.5 ± 6.5
318 K	0.123 ± 0.025	1155 ± 20	1.5503 ± 0.0006	29.7 ± 4
323 K	0.178 ± 0.036	1152.4 ± 20	1.5493 ± 0.0005	18.3 ± 3

C[N+](C)(C)Cc1ccccc1.[Cl-] [trimethylbenzylammonium chloride] + OCCCCCCO
Details	electrical conductivity, [3] [S/m]	mass density, [3] [kg/m3]	refractive index, [2]	viscosity, [3] [mPa·s]
293 K	–	1142.3 ± 20	1.5143 ± 0.0007	–
298 K	0.0842 ± 0.017	1132.6 ± 20	1.5107 ± 0.0007	298.3 ± 41
303 K	0.145 ± 0.029	1126.2 ± 20	1.5083 ± 0.0006	143.6 ± 29
308 K	0.17 ± 0.034	1119.7 ± 20	1.5052 ± 0.0007	72.9 ± 14
313 K	0.184 ± 0.037	1113.4 ± 20	1.5016 ± 0.0007	38.7 ± 6.4
318 K	0.195 ± 0.039	1107.1 ± 20	1.4987 ± 0.0006	23.5 ± 2.9
323 K	0.253 ± 0.051	1100 ± 20	1.4963 ± 0.0006	16.8 ± 1.8

C[N+](C)(C)Cc1ccccc1.[Cl-] [trimethylbenzylammonium chloride] + OCCO
Details	electrical conductivity, [3] [S/m]	mass density, [3] [kg/m3]	refractive index, [2]	viscosity, [3] [mPa·s]
293 K	–	1123.7 ± 20	1.4806 ± 0.0009	–
298 K	0.539 ± 0.11	1118 ± 20	1.4763 ± 0.0008	137.3 ± 11
303 K	0.706 ± 0.14	1111.2 ± 20	1.4731 ± 0.0007	96.5 ± 11
308 K	0.843 ± 0.17	1105.1 ± 20	1.4695 ± 0.0008	54.6 ± 8.8
313 K	0.902 ± 0.18	1098 ± 20	1.4652 ± 0.0008	28.9 ± 4.4
318 K	0.965 ± 0.19	1091 ± 20	1.4611 ± 0.0007	20.7 ± 2
323 K	1.02 ± 0.2	1085 ± 20	1.4587 ± 0.0006	14.2 ± 1.8
